Assay results as given in US7612064B2, “Sulfopyrroles” (Takeda Pharmaceutical Company Limited, priority 2003, dated 2009).

Assays:
[1] = test system: HeLa; test: MTS proliferation assay; format: cell-based, human; conditions: 72 h
How it was run: (§1)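 Absorbance at 492 nm after a 3 h MTS incubation reports viable cell number. Before that, compounds at 10 μM, 3 μM, 1 μM and 0.3 μM final stay on the cells for 72 h at culture conditions.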

[2] = test system: Jurkat; test: MTS proliferation assay; format: cell-based, human; conditions: 72 h
How it was run: as §1

[3] = test system: Jily; test: MTS proliferation assay; format: cell-based; conditions: 72 h
How it was run: as §1

[4] = test system: MRC5; test: MTS proliferation assay; format: cell-based; conditions: MRC5, 72 h
How it was run: as §1

[5] = test system: HeLa; test: PI staining for cell cycle distribution; format: cell-based, human; parameters: key: 0: no effect; 1: weak effect; 2: strong effect; conditions: HeLa 10μM, 48 h
Protocol: (§2) 1-2*10^5 cells are seeded into 24 well tissue culture plates and incubated for 24 h prior to compound addition. […] Adherent cells are harvested by trypsinization. The cell suspensions are fixed by adding 2 parts ice cold ethanol 100% while vortexing. Then the samples are stored for>2 h at −20° C. Subsequently the cells are washed with PBS once and resuspended in 250 μl PBS containing 50 μg/ml PI (Calbiochem # 537059), then the samples are incubated at 37° C. for 30 min and subsequently analyzed on a FACSCalibur™ monitoring linear PI fluorescence activity on FL2. The readout allows the detection of a possible direct or indirect influence of the tested compounds on the cell cycle. The following events can occur: a) Generation of a subG1 peak indicative for DNA fragmentation, b) increase of the cell population arrested in G2M phase. Both events are scored by 1 for weak and 2 for strong occurrence. 0 indicates no occurrence at all.

[6] = test system: Jurkat; test: PI staining for cell cycle distribution; format: cell-based, human; parameters: key: 0: no effect; 1: weak effect; 2: strong effect; conditions: Jurkat 3μM, 48 h
Protocol: as §2

[7] = Hoechst 33342 nuclear staining; format: cell-based; conditions: 24 h or 48 h incubation; for Hoechst 33342 nuclear staining score, H460: H460 cells; for Hoechst 33342 nuclear staining score, HeLa: HeLa cells; for Hoechst 33342 nuclear staining score, Jily: Jily cells; for Hoechst 33342 nuclear staining score, Jurkat: Jurkat cells; for Hoechst 33342 nuclear staining score, MRC5: MRC5 cells;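 for all read-outs here: apoptotic nuclei scored 0 none 1 weak under 50% of cells 2 strong over 50% of cells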
How it was run: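 After a further 30 min incubation, plates were inspected on a standard inverted fluorescence microscope. The fraction of apoptotic nuclei and other apoptosis-specific morphology were scored as 0 for no activity, 1 for weak activity in less than 50% of the cells, and 2 for strong activity in more than 50% of the cells.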

[8] = conc 0.1 (final concentrations in μM)
[9] = conc 0.3 (final concentrations in μM)
[10] = conc 1 (final concentrations in μM)
[11] = conc 3 (final concentrations in μM)

| SMILES | IC50 [1] [nM] | IC50 [2] [nM] | IC50 [3] [nM] | IC50 [4] [nM] | PI staining for cell cycle distribution, G2M [5] | PI staining for cell cycle distribution, subG1 [5] | PI staining for cell cycle distribution, G2M [6] | PI staining for cell cycle distribution, subG1 [6] | Hoechst 33342 nuclear staining score, H460 [7, 8] | Hoechst 33342 nuclear staining score, H460 [7, 9] | Hoechst 33342 nuclear staining score, H460 [7, 10] | Hoechst 33342 nuclear staining score, H460 [7, 11] | Hoechst 33342 nuclear staining score, HeLa [7, 8] | Hoechst 33342 nuclear staining score, HeLa [7, 9] | Hoechst 33342 nuclear staining score, HeLa [7, 10] | Hoechst 33342 nuclear staining score, HeLa [7, 11] | Hoechst 33342 nuclear staining score, Jily [7, 8] | Hoechst 33342 nuclear staining score, Jily [7, 9] | Hoechst 33342 nuclear staining score, Jily [7, 10] | Hoechst 33342 nuclear staining score, Jily [7, 11] | also measured |
| --- | --- | --- | --- | --- | --- | --- | --- | --- | --- | --- | --- | --- | --- | --- | --- | --- | --- | --- | --- | --- | --- |
| Cc1ccc(S(=O)(=O)n2cc(-c3ccc(S(N)(=O)=O)cc3)cc2-c2ccc3c(c2)OCO3)cc1 [Example 51] | < 1000 | < 1000 | < 1000 | < 1000 | 2 | 0 | 1 | 0 | 0 | 0 | 2 (strong activity comprising more than 50% of the cells) | 2 (strong activity comprising more than 50% of the cells) | 0 | 0 | 2 (strong activity comprising more than 50% of the cells) | 2 (strong activity comprising more than 50% of the cells) | 0 | 0 | 2 (strong activity comprising more than 50% of the cells) | 2 (strong activity comprising more than 50% of the cells) | Hoechst 33342 nuclear staining score, Jurkat [7, 8]: 0; Hoechst 33342 nuclear staining score, Jurkat [7, 9]: 0; Hoechst 33342 nuclear staining score, Jurkat [7, 10]: 2 (strong activity comprising more than 50% of the cells); Hoechst 33342 nuclear staining score, Jurkat [7, 11]: 2 (strong activity comprising more than 50% of the cells); Hoechst 33342 nuclear staining score, MRC5 [7, 8]: 0; Hoechst 33342 nuclear staining score, MRC5 [7, 9]: 0; Hoechst 33342 nuclear staining score, MRC5 [7, 10]: 1 (weak activity comprising less than 50% of the cells); Hoechst 33342 nuclear staining score, MRC5 [7, 11]: 1 (weak activity comprising less than 50% of the cells); Hoechst 33342 nuclear staining score, PBLs [7, 8]: 0; Hoechst 33342 nuclear staining score, PBLs [7, 9]: 0; Hoechst 33342 nuclear staining score, PBLs [7, 10]: 0; Hoechst 33342 nuclear staining score, PBLs [7, 11]: 0 |
| COc1cc(-c2cc(-c3cncc(C(N)=O)c3)cn2S(=O)(=O)c2ccc(C)cc2)cc(OC)c1OC [Example 56] | < 1000 | < 200 | < 1000 | < 1000 | 2 | 0 | 1 | 0 | 0 | 2 (strong activity comprising more than 50% of the cells) | 2 (strong activity comprising more than 50% of the cells) | 2 (strong activity comprising more than 50% of the cells) | 0 | 0 | 2 (strong activity comprising more than 50% of the cells) | 2 (strong activity comprising more than 50% of the cells) | 0 | 2 (strong activity comprising more than 50% of the cells) | 2 (strong activity comprising more than 50% of the cells) | 2 (strong activity comprising more than 50% of the cells) | Hoechst 33342 nuclear staining score, Jurkat [7, 8]: 0; Hoechst 33342 nuclear staining score, Jurkat [7, 9]: 2 (strong activity comprising more than 50% of the cells); Hoechst 33342 nuclear staining score, Jurkat [7, 10]: 2 (strong activity comprising more than 50% of the cells); Hoechst 33342 nuclear staining score, Jurkat [7, 11]: 2 (strong activity comprising more than 50% of the cells); Hoechst 33342 nuclear staining score, MRC5 [7, 8]: 0; Hoechst 33342 nuclear staining score, MRC5 [7, 9]: 2 (strong activity comprising more than 50% of the cells); Hoechst 33342 nuclear staining score, MRC5 [7, 10]: 2 (strong activity comprising more than 50% of the cells); Hoechst 33342 nuclear staining score, MRC5 [7, 11]: 2 (strong activity comprising more than 50% of the cells); Hoechst 33342 nuclear staining score, PBLs [7, 8]: 0; Hoechst 33342 nuclear staining score, PBLs [7, 9]: 0; Hoechst 33342 nuclear staining score, PBLs [7, 10]: 0; Hoechst 33342 nuclear staining score, PBLs [7, 11]: 0 |
